Source: patent publication US9090667B2, “Cyclic peptide from Nonomuraea sp., process for the production thereof, and pharmaceutical composition for the prevention or treatment of mycobacteria related disease comprising the same” (priority 2011, dated 2015)
Values after ≈ are worked out from the molar mass of the structure shown. Where two headings read alike, the source gives them in different places. Numbered stars: 1 amine (or outer) side, 2 acyl side, 3 side chain; on linkers, the order of the positions; unused ones are H or OH. Bridge positions count the residues as written; N and C are the ends. Square brackets hold non-standard residues; d marks the D form. Peptide text beside a SMILES is read from it. * marks the point of attachment. ξ: configuration not given here. NMeTrp(4-OMe) = CN[CH](Cc1c[nH]c2cccc(OC)c12)C(=O)O; X1 = O=C(C(N[*:1])C(O)c1ccccc1)[*:2]; NMeI = CC[CH](C)[CH](NC)C(=O)O; ξNMe2Val = CC(C)C(C(=O)*)N(C)C; NMeT = CN[CH](C(=O)O)[CH](C)O; NMeL = CN[CH](CC(C)C)C(=O)O; NMeV = CN[CH](C(=O)O)C(C)C

Assays:
[1] = system: Nonomuraea sp. MJM5123; test: Antibiotic resistance test of the producing strain; format: cell-based; settings: ISP2 medium, 2 weeks at 28° C.; for Growth in the presence of antibiotics: 50 μg/ml
Description: To test for melanoid pigments, peptone yeast extract iron agar (ISP6) and tyrosine agar (ISP7, with or without tyrosine) was used. Temperature range, NaCl tolerance and pH range for growth was determined on ISP3 medium and antibiotic resistance test was performed on ISP2 medium for 2 weeks at 28° C.

[2] = system: M. tuberculosis H37Rv; test: Aerobic MBC99; format: cell-based, Mycobacterium tuberculosis; settings: for classification from MBC99 versus MIC: MBC99 approximately two-fold higher than MIC; for MBC99: aerobic, H37Rv, minimum concentration that kills 99% of organisms
[3] = system: nonreplicating M. tuberculosis; format: cell-based, Mycobacterium tuberculosis; settings: for concentration effecting a 99% reduction in viability (MBC under low oxygen): 10 days incubation under non-replicating conditions, cfu readout; for concentration reducing viability of non-replicating M. tuberculosis by one log10: LORA
[4] = system: Candida albicans; test: Antibacterial selectivity MIC; format: cell-based; settings: C. albicans; for activity: at 31 μM
Description: (§1) Selectivities of H-14 and H-16 were determined by screening them against Escherichia coli, a Gram-negative bacterium, Staphylococcus aureus, a Gram-positive bacterium, Candida albicans, a yeast, and six mycobacterial species (Table 16).

[5] = system: Escherichia coli; test: Antibacterial selectivity MIC; format: cell-based; settings: E. coli; for activity: at 31 μM
Description: as §1

[6] = system: Staphylococcus aureus; test: Antibacterial selectivity MIC; format: cell-based; settings: S. aureus; for activity: at 31 μM
Description: as §1

[7] = system: M. smegmatis; test: Antibacterial selectivity MIC; format: cell-based, Mycobacterium smegmatis; settings: compared with M. tuberculosis
Description: as §1

[8] = system: M. abscesses; test: Antibacterial selectivity MIC; format: cell-based, Mycobacterium abscessus; settings: for activity: M. abscesses, compared with the other mycobacteria; for MIC: M. abscessus
Description: as §1

[9] = system: M. tuberculosis H37Pv; format: cell-based, Mycobacterium tuberculosis
[10] = system: Vero cells; test: Toxicity against mammalian cells (Vero); format: cell-based, African green monkey; settings: for IC50: Vero cells, read-out: Vero cell IC50; for in vitro mammalian cell toxicity: at 100-fold their MBC; for cytotoxicity: highest testing concentration (32 μM)
Description: Cytoxicities of H-14 and H-16 against mammalian cells were evaluated by testing against Vero cells, an African green monkey kidney cell line (Table 18). No cytoxicity was found for either compound at even the highest testing concentration (32 μM).

[11] = system: M. tuberculosis H37Rv
[12] = system: M. tuberculosis X003899; settings: IndoOceanic clade, strain X003899
[13] = system: M. tuberculosis X004439; settings: East Asian clade, strain X004439
[14] = system: M. tuberculosis X004244; settings: East Asian clade, strain X004244
[15] = system: M. tuberculosis X005282; settings: Euro-American clade, strain X005282
[16] = system: M. tuberculosis X005319; settings: Euro-American clade, strain X005319
[17] = system: M. tuberculosis X001354; settings: East African Indian clade, strain X001354
[18] = system: M. tuberculosis H37Rv; test: microbe, parasite or virus in culture; settings: Mycobacterium tuberculosis
[19] = aerobic, replicating M. tuberculosis H37Rv, concentration inhibiting growth by 90%

SMILES: CC1(C)S[C@@H]2[C@H](NC(=O)[C@H](N)c3ccccc3)C(=O)N2[C@H]1C(=O)O [Ampicillin]
- Growth in the presence of antibiotics [1]: +
- susceptibility of MJM5123 to the antibiotic [1]: resistant

SMILES: CN[C@@H]1[C@@H](O[C@H]2O[C@H](CO)[C@@H](N)[C@H](O)[C@H]2O)OC2C[C@@H](N)[C@@H](O[C@H]3[C@H](O)[C@@H](O)[C@H](N)C[C@@H]3N)OC2[C@@H]1O (stereo partly shown) [Apramycin]
- Growth in the presence of antibiotics [1]: −
- susceptibility of MJM5123 to the antibiotic [1]: susceptible

SMILES: CCC(C)C(C(=O)NC1C(=O)N(C)C(C(C)O)C(=O)NC(C(C)C)C(=O)N(C)C(CC(C)C)C(=O)NC(C(C)C)C(=O)N(C)C(C(C)C)C(=O)N(C)C(Cc2c[nH]c3cccc(OC)c23)C(=O)NC(C(C)C)C(=O)NC(C(O)c2ccccc2)C(=O)NC(C(C)C)C(=O)OC1C)N(C)C(=O)C(NC(=O)C(C(C)C)N(C)C)C(C)C (stereo not shown) [H-14] (ξNMe2Val-V[NMeI]T[NMeT]V[NMeL]V[NMeV][NMeTrp(4-OMe)]V[X1]V; ester 3-C; configuration not given here)
- classification from MBC99 versus MIC [2]: bactericidal
- MBC99 [2]: 0.34 µM (≈ 0.544 µg/mL)
- concentration effecting a 99% reduction in viability (MBC under low oxygen) [3]: approximately 1.5 μM
- concentration reducing viability of non-replicating M. tuberculosis by one log10 [3]: approximately 1.5 μM
- MIC [4]: >32 µM
- antimicrobial activity [4]: Neither of the compounds displayed antimicrobial activity
- activity [4]: no activity
- MIC [5]: >32 µM
- antimicrobial activity [5]: Neither of the compounds displayed antimicrobial activity
- activity [5]: no activity
- MIC [6]: >32 µM
- antimicrobial activity [6]: Neither of the compounds displayed antimicrobial activity
- activity [6]: no activity
- activity [7]: activity was lower
- activity [8]: significantly less active
- MIC [8]: >63 µM
- MIC vs. M. tuberculosis ([9]; 0.5% BSA): 0.16 µM (≈ 0.256 µg/mL)
- MIC vs. M. tuberculosis ([9]; 4% BSA): 0.58 µM (≈ 0.928 µg/mL)
- MIC vs. M. tuberculosis ([9]; 10% BSA): 0.36 µM (≈ 0.576 µg/mL)
- IC50 [10]: > 32 µM
- in vitro mammalian cell toxicity [10]: no in vitro mammalian cell toxicity
- cytotoxicity [10]: No cytoxicity
- MIC ([11]; H37Rv reference in Table 15): 0.38 µM (≈ 0.608 µg/mL)
- MIC ([11]; H37Rv reference in Table 19): 0.16 µM (≈ 0.256 µg/mL)
- MIC [11, 19]: 0.16 µM (≈ 0.256 µg/mL)
- MIC [12]: 0.23 µM (≈ 0.368 µg/mL)
- MIC [13]: 0.29 µM (≈ 0.464 µg/mL)
- MIC [14]: 0.13 µM (≈ 0.208 µg/mL)
- MIC [15]: 0.14 µM (≈ 0.224 µg/mL)
- MIC [16]: 0.36 µM (≈ 0.576 µg/mL)
- MIC [17]: 0.38 µM (≈ 0.608 µg/mL)

SMILES: CCC(C)C(C(=O)NC1C(=O)N(C)C(C(C)O)C(=O)NC(C(C)C)C(=O)N(C)C(CC(C)C)C(=O)NC(C(C)C)C(=O)N(C)C(C(C)C)C(=O)N(C)C(Cc2c[nH]c3cccc(OC)c23)C(=O)NC(C(C)C)C(=O)NC(Cc2ccccc2)C(=O)NC(C(C)C)C(=O)OC1C)N(C)C(=O)C(NC(=O)C(C(C)C)N(C)C)C(C)C (stereo not shown) [H-16] (ξNMe2Val-V[NMeI]T[NMeT]V[NMeL]V[NMeV][NMeTrp(4-OMe)]VFV; ester 3-C; configuration not given here)
- classification from MBC99 versus MIC [2]: bactericidal
- MBC99 [2]: 0.19 µM (≈ 0.301 µg/mL)
- concentration effecting a 99% reduction in viability (MBC under low oxygen) [3]: approximately 1.5 μM
- concentration reducing viability of non-replicating M. tuberculosis by one log10 [3]: approximately 1.5 μM
- MIC [4]: >32 µM
- antimicrobial activity [4]: Neither of the compounds displayed antimicrobial activity
- activity [4]: no activity
- MIC [5]: >32 µM
- antimicrobial activity [5]: Neither of the compounds displayed antimicrobial activity
- activity [5]: no activity
- MIC [6]: >32 µM
- antimicrobial activity [6]: Neither of the compounds displayed antimicrobial activity
- activity [6]: no activity
- activity [7]: activity was lower
- activity [8]: significantly less active
- MIC [8]: >32 µM
- IC50 [10]: > 32 µM
- in vitro mammalian cell toxicity [10]: no in vitro mammalian cell toxicity
- cytotoxicity [10]: No cytoxicity
- MIC ([11]; H37Rv reference in Table 15): 0.37 µM (≈ 0.586 µg/mL)
- MIC ([11]; H37Rv reference in Table 19): 0.16 µM (≈ 0.253 µg/mL)
- MIC [11, 19]: 0.16 µM (≈ 0.253 µg/mL)
- MIC [12]: 0.19 µM (≈ 0.301 µg/mL)
- MIC [13]: 0.19 µM (≈ 0.301 µg/mL)
- MIC [14]: 0.09 µM (≈ 0.143 µg/mL)
- MIC [15]: 0.14 µM (≈ 0.222 µg/mL)
- MIC [16]: 0.34 µM (≈ 0.539 µg/mL)
- MIC [17]: 0.37 µM (≈ 0.586 µg/mL)

SMILES: NC[C@H]1O[C@H](O[C@H]2[C@H](O)[C@@H](O[C@H]3O[C@H](CO)[C@@H](O)[C@H](N)[C@H]3O)[C@H](N)C[C@@H]2N)[C@H](O)[C@@H](O)[C@@H]1O [Kanamycin]
- Growth in the presence of antibiotics [1]: −

SMILES: C=C(NC(=O)C(=C)NC(=O)c1csc(C2=N[C@@H]3c4csc(n4)[C@H]4NC(=O)c5csc(n5)[C@H]([C@](C)(O)[C@@H](C)O)NC(=O)[C@H]5CSC(=N5)/C(=C/C)NC(=O)[C@H]([C@@H](C)O)NC(=O)c5csc(n5)[C@]3(CC2)NC(=O)[C@H](C)NC(=O)C(=C)NC(=O)[C@H](C)NC(=O)[C@H]([C@@H](C)CC)N[C@@H]2C=Cc3c([C@H](C)O)cc(nc3[C@H]2O)C(=O)O[C@@H]4C)n1)C(N)=O [Thiostrepton]
- Growth in the presence of antibiotics [1]: −
- susceptibility of MJM5123 to the antibiotic [1]: susceptible

SMILES: CN[C@H](CC(C)C)C(=O)N[C@H]1C(=O)N[C@@H](CC(N)=O)C(=O)N[C@H]2C(=O)N[C@H]3C(=O)N[C@H](C(=O)N[C@H](C(=O)O)c4cc(O)cc(O)c4-c4cc3ccc4O)[C@H](O)c3ccc(c(Cl)c3)Oc3cc2cc(c3O[C@@H]2O[C@H](CO)[C@@H](O)[C@H](O)[C@H]2O[C@H]2C[C@](C)(N)[C@H](O)[C@H](C)O2)Oc2ccc(cc2Cl)[C@H]1O [Vancomycin]
- Growth in the presence of antibiotics [1]: −
- susceptibility of MJM5123 to the antibiotic [1]: susceptible

SMILES: NNC(=O)c1ccncc1 [isoniazid]
- MIC [18]: 0.47 µM (≈ 0.0645 µg/mL)

SMILES: CO[C@H]1/C=C/O[C@@]2(C)Oc3c(C)c(O)c4c(O)c(c(/C=N/N5CCN(C)CC5)c(O)c4c3C2=O)NC(=O)/C(C)=C\C=C\[C@H](C)[C@H](O)[C@@H](C)[C@@H](O)[C@@H](C)[C@H](OC(C)=O)[C@@H]1C [rifampin]
- MIC [18]: 0.09 µM (≈ 0.0741 µg/mL)
